Literature values as cited in patent US20030077328A1, “Method and composition for inhibiting post-surgical adhesions” (priority 1995, published 2003).

System: post-traumatic adhesion formation
Conditions: hamster; 0.1 to 10 mg/kg subcutaneously at 12-hour intervals

## CC(=O)CCCCn1c(=O)c2c(ncn2C)n(C)c1=O [pentoxifylline]
  protection against post-traumatic adhesion formation: provide protection against post-traumatic adhesion formation
